≈ marks a conversion by molar mass, not a printed value. Results filed as inconclusive are left out. Calls of active or inactive are those of the source. How the calls were made is not given here.
These molecules were tested on M. tuberculosis H37Rv growth inhibition (assay: Mycobacterium tuberculosis H37Rv growth inhibition, cell based, confirmatory dose response (AID 1949);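 further: bacteria grown 7 days with compound before Alamar blue readout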).

| Compound | IC50 |
| --- | --- |
| O=C(/C=C/c1cccc(C(F)(F)F)c1)Nc1cccc(C(F)(F)F)c1 | 0.9 µg/mL (≈ 2.51 µM) |
| COc1ccccc1N1C(=O)c2cccc3cc([N+](=O)[O-])cc(c23)C1=O | 0.16 µg/mL (≈ 0.459 µM) |
| Nc1nc2ccccc2n1CCOc1ccc(Cl)cc1Cl | 3.85 µg/mL (≈ 11.9 µM) |
| COc1ccc(Nc2ccnc3cc4ccccc4cc23)cc1 | 0.74 µg/mL (≈ 2.46 µM) |
| N#C/C(=C/c1ccc([N+](=O)[O-])o1)c1ccc(C#N)cc1 | 2.96 µg/mL (≈ 11.2 µM) |
| O=C(CC12CC3CC(CC(C3)C1)C2)Nc1cccc(Cl)c1 | 3.34 µg/mL (≈ 11 µM) |
| CCSCC(=O)N1CCN(c2nnc(-c3ccccc3)c3ccccc23)CC1 | 14.5 µg/mL (≈ 36.9 µM) |
| Cc1ccc(N2CCN(CCNC(=S)Nc3cccc(C)c3C)CC2)c(Cl)c1 | 8.3 µg/mL (≈ 19.9 µM) |
| CCc1cc(C(=O)OC)c(NC(=S)NCc2ccc(Cl)c(Cl)c2)s1 | 0.14 µg/mL (≈ 0.347 µM) |
| O=C(CC1COc2ccccc2O1)Nc1ccc(Br)cc1 (centres undefined) | 11 µg/mL (≈ 31.6 µM) |
| CC(=O)c1cccc(NC(=S)NC(=O)c2ccc(C(C)(C)C)cc2)c1 | 12.5 µg/mL (≈ 35.3 µM) |
| O=[N+]([O-])c1c(-n2cccn2)nn(-c2ccccc2)c1C(Cl)Cl | 3.09 µg/mL (≈ 9.14 µM) |
| Cc1ccc(NC(=O)NC23CC4(C)CC(C)(CC(C)(C4)C2)C3)cc1 | > 50 µg/mL (inactive) |
| COC(=O)c1ccc(CSc2nnc(-c3ccncc3)o2)o1 | > 50 µg/mL (inactive) |
| c1ccc(COc2ccc3ccccc3c2CNCc2cccnc2)cc1 | 7.91 µg/mL (≈ 22.3 µM) |
| O=C(Nc1cccc(C(F)(F)F)c1)c1ccc(Cn2cc(Cl)cn2)cc1 | 5.67 µg/mL (≈ 14.9 µM) |
| C=CCc1cc(Cl)ccc1OCCCCn1ccnc1 | 2.09 µg/mL (≈ 7.19 µM) |
| Cc1cc(O)ccc1Nc1nc(-c2ccccn2)cs1 | 1.42 µg/mL (≈ 5.01 µM) |
| O=C(Nc1cccc([N+](=O)[O-])c1)N1CCN(Cc2ccc(Cl)cc2Cl)CC1 | 5.06 µg/mL (≈ 12.4 µM) |
| COc1ccc(-c2csc3ncn(C(C)C(=O)OC4CCCCC4)c(=O)c23)cc1 (centres undefined) | 10.9 µg/mL (≈ 26.5 µM) |
| O=C(Nc1ccncc1)c1ccc2nc(-c3ccccc3)c(-c3ccccc3)nc2c1 | 4.64 µg/mL (≈ 11.5 µM) |

| Compound | IC50 |
| --- | --- |
| Cc1ccc(OCC(=O)c2ccc(Cl)cc2)cc1C | 17.6 µg/mL (≈ 64.1 µM) |
| COc1cc(CNc2ccc(F)c(Cl)c2)ccc1OCC(=O)NC1CCCCC1 | 5.53 µg/mL (≈ 13.1 µM) |
| CCOC(=O)C1CCCN(c2ncnc3c2cnn3-c2ccc(Cl)cc2)C1 (centres undefined) | 4.21 µg/mL (≈ 10.9 µM) |
| CCOc1cc(CNCCO)ccc1OCc1ccc(Cl)cc1Cl | 6.03 µg/mL (≈ 16.3 µM) |
| Cc1ccccc1C(=O)N1CCN(c2ccc(NC(=S)NC(=O)c3cccc(Cl)c3)cc2)CC1 | > 50 µg/mL (inactive) |
| Cc1cc(C)cc(-c2nc(-c3cccnc3)no2)c1 | 47.7 µg/mL (≈ 190 µM) |
| O=C(Nc1ccccc1Cl)c1cc2cc(Cl)cc(Cl)c2oc1=O | > 50 µg/mL (inactive) |
| O=c1c2ccccc2[nH]c(=S)n1CCCN1CCN(c2cccc(Cl)c2)CC1 | 2.46 µg/mL (≈ 5.93 µM) |
| COC(=O)COc1ccc(NC(=O)c2ccccc2F)cc1 | 0.65 µg/mL (≈ 2.14 µM) |
| CN1C(=O)N(C)c2ccc(C=O)c3cccc1c23 | > 50 µg/mL (inactive) |
| Cc1ccc(-c2csc3ncn(C(C)C(=O)OCc4ccccc4Cl)c(=O)c23)cc1 (centres undefined) | 0.74 µg/mL (≈ 1.69 µM) |
| CC1=CC(C)(C)N2C(=O)C3(Nc4ccccc4S3)c3cc(C)cc1c32 (centres undefined) | 16.9 µg/mL (≈ 48.6 µM) |
| COCCNS(=O)(=O)c1ccc(-c2ccc(C)cc2)cc1 | 0.49 µg/mL (≈ 1.6 µM) |
| CC(=O)c1cccc(-n2nnnc2S(C)(=O)=O)c1 | 2.75 µg/mL (≈ 10.3 µM) |
| O=C(NC12CC3CC(CC(C3)C1)C2)N1CCN(c2cccc(Cl)c2)CC1 | 8.14 µg/mL (≈ 21.8 µM) |
| Cc1ccc(Cn2c(=N)n(CC(O)c3ccc(Cl)c(Cl)c3)c3ccccc32)cc1 (centres undefined) | 2.89 µg/mL (≈ 6.78 µM) |
| CCOC(=O)c1cc(-c2ccccc2)sc1NC(=S)NC(C)c1ccncc1 (centres undefined) | 1.47 µg/mL (≈ 3.57 µM) |
| CCCCCn1c(NCc2cccs2)nc2ccccc21 | 3.41 µg/mL (≈ 11.4 µM) |
| Cc1cccc(OCc2nnc(SCC(=O)NCCc3ccccc3)o2)c1 | 0.46 µg/mL (≈ 1.2 µM) |
| CCC(C)NCCCOc1ccc(Cl)c2ccccc12 (centres undefined) | 2.06 µg/mL (≈ 7.06 µM) |
| COc1ccc(/C=C/c2nc3ccccc3c(=O)o2)cc1 | 27.6 µg/mL (≈ 99 µM) |

| Compound | IC50 |
| --- | --- |
| CCOC(=O)Cn1nnc(-c2ccc(OCc3ccccc3C)cc2)n1 | < 0.1 µg/mL |
| C=CCN1C(=O)C(O)(CC(=O)c2ccc(C)cc2C)c2ccccc21 (centres undefined) | 14.6 µg/mL (≈ 43.5 µM) |
| CCOC(=O)Cc1nc2cc(Cl)ccc2o1 | 10.4 µg/mL (≈ 43.5 µM) |
| O=C(Nc1ccc2ccccc2c1)Nc1ccc2snnc2c1 | 0.9 µg/mL (≈ 2.81 µM) |
| O=C(NCCc1c[nH]c2ccccc12)C(Cl)Cl | 2.63 µg/mL (≈ 9.7 µM) |
| Nc1c2c(nc3sc4c(c13)CCCC4)CCCC2 | 0.6 µg/mL (≈ 2.32 µM) |
| Cn1c2c(c(=O)n(C)c1=O)C(C(F)(F)F)(C(F)(F)F)N=C(c1cccc([N+](=O)[O-])c1)N2 | > 50 µg/mL (inactive) |
| C/C(=N/N=C1\NC(=O)C(Cc2cccc(C(F)(F)F)c2)S1)c1ccc(C)cc1 (centres undefined) | 4.95 µg/mL (≈ 12.2 µM) |
| CCOC(=O)C(C)Oc1ccc2c(=O)c(Oc3ccccc3Cl)coc2c1 (centres undefined) | 8.87 µg/mL (≈ 22.8 µM) |
| O=C(Nc1ccc(Cl)cc1)NC1CC2CCC1C2 (centres undefined) | 0.72 µg/mL (≈ 2.72 µM) |
| CCCCOc1ccc(C(=O)NC23CC4CC(CC(C4)C2)C3)cc1 | 4.33 µg/mL (≈ 13.2 µM) |
| Cc1cc(OC(=O)c2ccco2)c2c3c(c(=O)oc2c1)CCCC3 | 23.4 µg/mL (≈ 72 µM) |
| O=C(CC12CC3CC(CC(C3)C1)C2)NC(=S)Nc1ccc2c(c1)OCCO2 | > 50 µg/mL (inactive) |
| COC(=O)COc1ccc(-c2ccccc2)cc1 | 0.22 µg/mL (≈ 0.908 µM) |
| Cc1cc(OCCCCn2ccnc2)cc(C(C)C)c1 | 2.03 µg/mL (≈ 7.45 µM) |
| Clc1ccc(Nc2nc(-c3ccccn3)cs2)nc1 | < 0.1 µg/mL |
| COc1ccc2c(c1)CCC1Sc3ccccc3N=C21 (centres undefined) | 1.43 µg/mL (≈ 5.08 µM) |
| COC(=O)COc1ccc2cc(-c3ccc(Cl)cc3)c(=O)oc2c1 | 18.8 µg/mL (≈ 54.6 µM) |
| Cc1ccccc1C(=O)Nc1sc2c(c1C(=O)NCCO)CCC(C(C)(C)C)C2 (centres undefined) | > 50 µg/mL (inactive) |
| N#Cc1c(C(F)(F)F)cc(-c2cccs2)nc1SCC(O)CN1CCSCC1 (centres undefined) | 10.9 µg/mL (≈ 24.6 µM) |
| O=C(CC1Sc2ccc(Cl)cc2NC1=O)Nc1ccc([N+](=O)[O-])cc1 (centres undefined) | 2.53 µg/mL (≈ 6.7 µM) |

| Compound | IC50 |
| --- | --- |
| O=C(Oc1cccc2cccnc12)c1ccccc1F | 2.7 µg/mL (≈ 10.1 µM) |
| O=C1c2cccc3c([N+](=O)[O-])ccc(c23)C(=O)N1Cc1ccccc1 | 46 µg/mL (≈ 138 µM) |
| CN1CCN(c2ccc(NC(=O)c3ccc(-c4cccc([N+](=O)[O-])c4)o3)cc2)CC1 | 8.66 µg/mL (≈ 21.3 µM) |
| O=C(CSc1ccccc1)c1ccc([N+](=O)[O-])cc1 | 9.78 µg/mL (≈ 35.8 µM) |
| CC1(C)COC(/C=C/c2cccc([N+](=O)[O-])c2)=N1 | 11.6 µg/mL (≈ 47.1 µM) |
| O=c1c2c(-c3ccc(Cl)cc3)csc2nc2c3ccccc3c(NCCN3CCOCC3)nn12 | 11.2 µg/mL (≈ 22.8 µM) |
| COc1ccc(-c2c(C)[nH]n3c(=O)c(Cc4ccccc4)c(C)nc23)cc1 | 1.28 µg/mL (≈ 3.56 µM) |
| O=[N+]([O-])c1nn(-c2ccccc2)[n+]([O-])c1N1CCCC1 | 11.9 µg/mL (≈ 43.1 µM) |
| Fc1ccc(C2=CC(c3ccc(Br)cc3)n3nnnc3N2)cc1 (centres undefined) | 22.6 µg/mL (≈ 60.7 µM) |
| CCOc1ccc(NCCC(=O)c2ccc3c(c2)OCO3)cc1 | 3.32 µg/mL (≈ 10.6 µM) |
| CCc1cccc(OCC(=O)Nc2ccc([N+](=O)[O-])cc2)c1 | 11.7 µg/mL (≈ 39.1 µM) |
| COc1ccc2cc(-c3nn(-c4ccccc4)cc3CO)ccc2c1 | > 50 µg/mL (inactive) |
| Nc1cc(Oc2ccc(O)c(N)c2)ccc1O | 6.13 µg/mL (≈ 26.4 µM) |
| CCOC(=O)c1c(NC(=O)c2cc3ccccc3oc2=O)sc(C)c1-c1ccccc1 | > 50 µg/mL (inactive) |
| CCOC(=O)c1c(NC(=O)c2c(F)c(F)c(F)c(F)c2F)sc(C(=O)OC)c1C | 0.37 µg/mL (≈ 0.846 µM) |
| c1ccc(-c2nnc3sc(-c4cc5ccccc5o4)nn23)cc1 | 4.89 µg/mL (≈ 15.4 µM) |
| CCN(CC)CCNc1nc(-c2cccc(Cl)c2)nc2ccccc12 | 46 µg/mL (≈ 130 µM) |
| Cc1cc(OCCn2ccnc2)cc(C(C)C)c1 | 7.45 µg/mL (≈ 30.5 µM) |
| CCOC(=O)COc1ccc2c(=O)c(Oc3cnn(-c4ccccc4)c3)c(C)oc2c1 | 0.61 µg/mL (≈ 1.45 µM) |
| O=S(=O)(Nc1cccc2cccnc12)c1ccc(Br)cc1 | 0.4 µg/mL (≈ 1.1 µM) |
| Cc1ccccc1NC(=O)c1cc(Cl)ccc1O | 2.6 µg/mL (≈ 9.93 µM) |

— PubChem BioAssay AID1949 (Southern Research Institute, 2009)
